Assay results as given in patent US11939320B2, “Modulators of the integrated stress pathway” (Calico Life Sciences LLC, priority 2017, dated 2024).
pEC50: −log10 of the molar value.

Tested on: HEK293T cells carrying the ATF4 luciferase reporter
Experiment: ATF4-Luc assay (in vitro model of VWMD)
Type: cell-based
Conditions: Homo sapiens, HEK-293T; HEK293T cells with ATF4 5'-UTR firefly luciferase reporter; 1 μg/mL tunicamycin; 7 hours; One Glo luminescence
Description: In order to test exemplary compounds of the invention in a cellular context, a stable VWMD cell line was first constructed. The ATF4 reporter was prepared by fusing the human full-length ATF4 5′-UTR (NCBI Accession No. BC022088.2) in front of the firefly luciferase (FLuc) coding sequence lacking the initiator methionine as described in Sidrauski et al (eLife 2013). The construct was used to produce recombinant retroviruses using standard methods and the resulting viral supernatant was used to transduce HEK293T cells, which were then subsequently selected with puromycin to generate a stable cell line.
HEK293T cells carrying the ATF4 luciferase reporter were plated on polylysine coated 384-well plates (Greiner Bio-one) at 30,000 cells per well. Cells were treated the next day with 1 μg/mL tunicamycin and 200 nM of a compound of Formula (I) for 7 hours. Luminescence was measured using One Glo (Promega) as specified by the manufacturer. Cells were maintained in DMEM with L-glutamine supplemented with 10% heat-inactivated FBS (Gibco) and Antibiotic-Antimycotic solution (Gibco).
Table 2 below summarizes the EC50 data obtained using the ATF4-Luc assay for exemplary compounds of the invention.

Row | SMILES | pEC50
1 | O=C(COc1ccc(Cl)c(Cl)c1)N[C@@H]1CC[C@@H](C(=O)NCc2ccc(C(F)(F)F)cn2)OC1 [Compound 174, (2S,5R)-5-[2-(3,4-dichlorophenoxy)acetamido]-N-{[5-(trifluoromethyl)pyridin-2-yl]methyl}oxane-2-carboxamide] | 7.30 to 8.00
2 | O=C(COc1ccc(Cl)c(Cl)c1)N[C@H]1CC[C@H](C(=O)Nc2ccc(OC(F)F)nc2)CC1 [Compound 102, (1r,4r)-4-[2-(3,4-dichlorophenoxy)acetamido]-N-[6-(difluoromethoxy)pyridin-3-yl]cyclohexane-1-carboxamide] | > 8.00
3 | O=C(COc1ccc(Cl)c(F)c1)N[C@H]1CC[C@H](C(=O)NCc2nc3cc(Cl)ccc3[nH]2)CC1 [Compound 150, (1r,4r)-N-[(5-chloro-1H-benzimidazol-2-yl)methyl]-4-[2-(4-chloro-3-fluorophenoxy)acetamido]cyclohexane-1-carboxamide] | 7.30 to 8.00
4 | Cc1ccc(CNC(=O)[C@H]2CC[C@H](NC(=O)COc3ccc(Cl)c(Cl)c3)CC2)nc1 [Compound 101, (1r,4r)-4-[2-(3,4-dichlorophenoxy)acetamido]-N-[(5-methylpyridin-2-yl)methyl]cyclohexane-1-carboxamide] | < 5.70
5 | O=C(COc1ccc(Cl)c(F)c1)N[C@@H]1CC[C@@H](C(=O)NCc2cnc(C(F)(F)F)nc2)OC1 [Compound 139, (2S,5R)-5-[2-(4-chloro-3-fluorophenoxy)acetamido]-N-{[2-(trifluoromethyl)pyrimidin-5-yl]methyl}oxane-2-carboxamide] | 6.30 to 6.60
6 | O=C(COc1ccc(F)c(F)c1)N[C@H]1CC[C@H](C(=O)NCc2nc3cc(Cl)ccc3[nH]2)CC1 [Compound 149, (1r,4r)-N-[(5-chloro-1H-benzimidazol-2-yl)methyl]-4-[2-(3,4-difluorophenoxy)acetamido]cyclohexane-1-carboxamide] | 6.60 to 7.30
7 | O=C(COc1ccc(Cl)c(F)c1)N[C@@H]1CC[C@@H](C(=O)NCc2cc3cc(Cl)ccc3[nH]2)OC1 [Compound 142, (2S,5R)-5-[2-(4-chloro-3-fluorophenoxy)acetamido]-N-[(5-chloro-1H-indol-2-yl)methyl]oxane-2-carboxamide] | 6.60 to 7.30
8 | O=C(COc1ccc(Cl)c(Cl)c1)N[C@H]1CC[C@H](C(=O)NCc2ccc(Cl)cn2)CC1 [Compound 175, (1r,4r)-N-[(5-chloropyridin-2-yl)methyl]-4-[2-(3,4-dichlorophenoxy)acetamido]cyclohexane-1-carboxamide] | 6.60 to 7.30
9 | Cc1cc(CNC(=O)[C@@H]2CC[C@@H](NC(=O)COc3ccc(Cl)c(F)c3)CO2)n(C)n1 [Compound 136, (2S,5R)-5-[2-(4-chloro-3-fluorophenoxy)acetamido]-N-[(1,3-dimethyl-1H-pyrazol-5-yl)methyl]oxane-2-carboxamide] | < 5.70
10 | O=C(COc1ccc(Cl)c(F)c1)N[C@H]1CC[C@H](C(=O)Nc2ccc(OC(F)(F)F)nc2)CC1 [Compound 177, (1r,4r)-4-[2-(4-chloro-3-fluorophenoxy)acetamido]-N-[6-(trifluoromethoxy)pyridin-3-yl]cyclohexane-1-carboxamide] | > 8.00
11 | O=C(COc1ccc(Cl)c(F)c1)N[C@@H]1CC[C@@H](C(=O)NCc2ccc(Cl)c(F)c2)OC1 [Compound 185, (2S,5R)-5-[2-(4-chloro-3-fluorophenoxy)acetamido]-N-[(4-chloro-3-fluorophenyl)methyl]oxane-2-carboxamide] | 7.30 to 8.00
12 | O=C(COc1ccc(Cl)c(F)c1)N[C@H]1CC[C@H](C(=O)N2CC(O)(c3ccc(Cl)cc3)C2)CC1 [Compound 130, 2-(4-chloro-3-fluorophenoxy)-N-{(1r,4r)-4-[3-(4-chlorophenyl)-3-hydroxyazetidine-1-carbonyl]cyclohexyl}acetamide] | 6.60 to 7.30
13 | O=C(COc1ccc(Cl)c(F)c1)N[C@H]1CC[C@H](C(=O)NCc2ccc(Cl)c(F)c2)CC1 [Compound 112, (1r,4r)-4-[2-(4-chloro-3-fluorophenoxy)acetamido]-N-[(4-chloro-3-fluorophenyl)methyl]cyclohexane-1-carboxamide] | > 8.00
14 | O=C(COc1ccc(Cl)c(F)c1)N[C@H]1CC[C@H](C(=O)Nc2ccc(OC(F)(F)F)cn2)CC1 [Compound 110, (1r,4r)-4-[2-(4-chloro-3-fluorophenoxy)acetamido]-N-[5-(trifluoromethoxy)pyridin-2-yl]cyclohexane-1-carboxamide] | 7.30 to 8.00
15 | O=C(COc1ccc(Cl)c(F)c1)N[C@H]1CC[C@H](C(=O)N2CC(c3ccccc3)C2)CC1 [Compound 131, 2-(4-chloro-3-fluorophenoxy)-N-[(1r,4r)-4-(3-phenylazetidine-1-carbonyl)cyclohexyl]acetamide] | 7.30 to 8.00
16 | O=C(COc1ccc(Cl)c(F)c1)N[C@H]1CC[C@H](C(=O)NCc2ccc(OC(F)F)nc2)CC1 [Compound 116, (1r,4r)-4-[2-(4-chloro-3-fluorophenoxy)acetamido]-N-{[6-(difluoromethoxy)pyridin-3-yl]methyl}cyclohexane-1-carboxamide] | 6.60 to 7.30
17 | O=C(N[C@@H]1CC[C@@H](C(=O)NCc2ccc(C(F)(F)F)cn2)OC1)C1CNc2cc(Cl)ccc2O1 (mixture of isomers) [Compound 165, 6-chloro-N-[(3R,6S)-6-({[5-(trifluoromethyl)pyridin-2-yl]methyl}carbamoyl)oxan-3-yl]-3,4-dihydro-2H-1,4-benzoxazine-2-carboxamide] | 6.60 to 7.30
18 | O=C(COc1ccc(Cl)c(F)c1)N[C@@H]1CC[C@@H](C(=O)NCCOc2ccc(Cl)cc2)OC1 [Compound 137, (2S,5R)-5-[2-(4-chloro-3-fluorophenoxy)acetamido]-N-[2-(4-chlorophenoxy)ethyl]oxane-2-carboxamide] | 7.30 to 8.00
19 | Cc1cncc(CNC(=O)[C@H]2CC[C@H](NC(=O)COc3ccc(Cl)c(F)c3)CC2)c1 [Compound 108, (1r,4r)-4-[2-(4-chloro-3-fluorophenoxy)acetamido]-N-[(5-methylpyridin-3-yl)methyl]cyclohexane-1-carboxamide] | < 5.70
20 | O=C(COc1ccc(Cl)c(F)c1)N[C@@H]1CC[C@@H](C(=O)NCc2ccc3c(c2)OC(F)(F)O3)OC1 [Compound 167, (2S,5R)-5-[2-(4-chloro-3-fluorophenoxy)acetamido]-N-[(2,2-difluoro-2H-1,3-benzodioxol-5-yl)methyl]oxane-2-carboxamide] | 6.60 to 7.30
21 | O=C(COc1ccc(Cl)c(Cl)c1)N[C@H]1CC[C@H](C(=O)NCc2ccc(C(F)(F)F)cn2)CC1 [Compound 183, (1r,4r)-4-[2-(3,4-dichlorophenoxy)acetamido]-N-{[5-(trifluoromethyl)pyridin-2-yl]methyl}cyclohexane-1-carboxamide] | > 8.00
22 | O=C(COc1ccc(Cl)c(F)c1)N[C@@H]1CC[C@@H](C(=O)NCc2ccc(OC(F)(F)F)cc2)OC1 [Compound 157, (2S,5R)-5-[2-(4-chloro-3-fluorophenoxy)acetamido]-N-{[4-(trifluoromethoxy)phenyl]methyl}oxane-2-carboxamide] | 6.60 to 7.30
23 | O=C(COc1ccc(Cl)c(Cl)c1)N[C@H]1CC[C@H](C(=O)NCc2cc(CO)ccn2)CC1 [Compound 182, (1r,4r)-4-[2-(3,4-dichlorophenoxy)acetamido]-N-{[4-(hydroxymethyl)pyridin-2-yl]methyl}cyclohexane-1-carboxamide] | < 5.70
